These results are taken from ChEMBL document CHEMBL5537135, “Novel antimicrobial peptides modified with fluorinated sulfono-γ-AA having high stability and targeting multidrug-resistant bacteria infections” (Eur J Med Chem, 2024).

Data set [1] relates to Escherichia coli. Description: Antimicrobial activity against Escherichia coli ATCC 25922 assessed as inhibition of visible bacterial growth incubated for 18 hrs by broth-dilution method. Type of data set: functional.
Data set [2] has as its system Pseudomonas aeruginosa. Description: Antimicrobial activity against Pseudomonas aeruginosa ATCC 27853 assessed as inhibition of visible bacterial growth incubated for 18 hrs by broth-dilution method. Type of data set: functional.
The test system of data set [3] is Acinetobacter baumannii. Description: Antimicrobial activity against Acinetobacter baumannii ATCC 19606 assessed as inhibition of visible bacterial growth incubated for 18 hrs by broth-dilution method. It is filed as functional.
For data set [4], the system named is Salmonella typhimurium. Kind of data set: Antimicrobial activity against Salmonella typhimurium ATCC 14028 assessed as inhibition of visible bacterial growth incubated for 18 hrs by broth-dilution method. Conditions: Salmonella enterica. It is filed as functional, Salmonella enterica subsp. enterica serovar Typhimurium.
The test system of data set [5] is Staphylococcus aureus. Kind of data set: Antimicrobial activity against Staphylococcus aureus ATCC 25923 assessed as inhibition of visible bacterial growth incubated for 18 hrs by broth-dilution method. It is filed as functional.
Data set [6] deals with Staphylococcus epidermidis. Kind of data set: Antimicrobial activity against Staphylococcus epidermidis ATCC 12228 assessed as inhibition of visible bacterial growth incubated for 18 hrs by broth-dilution method. Type of data set: functional.
Data set [7] relates to Bacillus subtilis. Description: Antimicrobial activity against Bacillus subtilis ATCC 23857 assessed as inhibition of visible bacterial growth incubated for 18 hrs by broth-dilution method. It is filed as functional.
Data set [8] concerns Staphylococcus aureus. Kind of data set: Antimicrobial activity against methicillin-resistant Staphylococcus aureus ATCC 33591 assessed as inhibition of visible bacterial growth incubated for 18 hrs by broth-dilution method. It is filed as functional.
Data set [9] deals with Erythrocyte. Description: Hemolytic activity against mouse Red blood cell incubated for 1 hr. Type of data set: toxicity, cell-based.
The test system of data set [10] is Staphylococcus aureus. Kind of data set: Antimicrobial activity against Staphylococcus aureus ATCC 25923 assessed as fold change in MIC in presence of salt solution. It is filed as functional.
Data set [11] concerns Staphylococcus aureus. Description: Antimicrobial activity against Staphylococcus aureus ATCC 25923 assessed as reduction in bacterial growth in presence of Ca2+. It is filed as functional.
A short description of data set [12]: Stability in human serum assessed as half life measured for 5 hrs by RP-HPLC analysis. Type of data set: ADME, cell-free.

Converted amounts (≈) assume the structure as drawn. Peptide text beside a SMILES is read from it. * marks the point of attachment. X8 = NC(=O)CN(C[C@H](Cc1ccccc1)N*)S(=O)(=O)c1cc(C(F)(F)F)cc(C(F)(F)F)c1; X6 = CC(C)C[C@@H](CN(CC(N)=O)S(=O)(=O)c1cc(C(F)(F)F)cc(C(F)(F)F)c1)N*; X5 = NC(=O)CN(C[C@H](Cc1ccccc1)N*)S(=O)(=O)c1ccc(C(F)(F)F)cc1

`CC(C)C[C@H](NC(=O)[C@H](C)NC(=O)[C@H](CCCCN)NC(=O)[C@H](CC(C)C)NC(=O)[C@@H](N)Cc1ccccc1)C(=O)N[C@@H](CCCCN)C(=O)N[C@@H](CCCCN)C(=O)N[C@@H](Cc1ccccc1)CN(CC(N)=O)S(=O)(=O)c1cc(C(F)(F)F)cc(C(F)(F)F)c1` (H-FLKALKK-X8): the MIC in [1] is 32 µg/mL (≈ 24.4 µM); in data set [2], 16 µg/mL (≈ 12.2 µM); in data set [3] it was 128 µg/mL (≈ 97.5 µM); in data set [4], 32 µg/mL (≈ 24.4 µM); in data set [5], 16 µg/mL (≈ 12.2 µM); in data set [6], 16 µg/mL (≈ 12.2 µM). Further, the MIC in [7] and in data set [8] was 16 µg/mL (≈ 12.2 µM) each time. This molecule returned an MHC in data set [9] of 256 µg/mL.
On to `CC(C)C[C@H](NC(=O)[C@H](CC(C)C)NC(=O)[C@H](CCCCN)NC(=O)[C@H](CC(C)C)NC(=O)[C@@H](N)Cc1ccccc1)C(=O)N[C@@H](CCCCN)C(=O)N[C@@H](CCCCN)C(=O)N[C@@H](Cc1ccccc1)CN(CC(N)=O)S(=O)(=O)c1ccc(C(F)(F)F)cc1` (H-FLKLLKK-X5), for which the MIC is 32 µg/mL (≈ 24.9 µM) in data set [1]; 8 µg/mL (≈ 6.22 µM) in [2]; 16 µg/mL (≈ 12.4 µM) in [3]; 16 µg/mL (≈ 12.4 µM) in data set [4]; 8 µg/mL (≈ 6.22 µM) in [5]; 4 µg/mL (≈ 3.11 µM) in data set [6]. Also, the MIC in data set [7] worked out at 4 µg/mL (≈ 3.11 µM); in data set [8], 8 µg/mL (≈ 6.22 µM); in data set [11] it was 32 µg/mL. Further, the MHC in data set [9] turned out to be 128 µg/mL. Also, in [10], the “fold change (FC)” value came to 0.25. In [12], the half-life was 2.61 h.
On to `CC(C)C[C@@H](CN(CC(N)=O)S(=O)(=O)c1cc(C(F)(F)F)cc(C(F)(F)F)c1)NC(=O)[C@H](CCCCN)NC(=O)[C@H](CCCCN)NC(=O)[C@H](CC(C)C)NC(=O)[C@H](CC(C)C)NC(=O)[C@H](CCCCN)NC(=O)[C@H](CC(C)C)NC(=O)[C@@H](N)Cc1ccccc1` (H-FLKLLKK-X6), for which the MIC came out at 8 µg/mL (≈ 6.06 µM) in data set [1]; 8 µg/mL (≈ 6.06 µM) in [2]; 8 µg/mL (≈ 6.06 µM) in data set [3]; 8 µg/mL (≈ 6.06 µM) in [4]; 8 µg/mL (≈ 6.06 µM) in data set [5]; 16 µg/mL (≈ 12.1 µM) in [6]. The MIC in data set [7] came to 16 µg/mL (≈ 12.1 µM); in data set [8] it was 4 µg/mL (≈ 3.03 µM); in data set [11], 32 µg/mL. In [9], this molecule had an MHC of 128 µg/mL. In addition, in data set [10], the “fold change (FC)” value was 0.25. In [12], the half-life is 2.24 h.
For the molecule `CC(C)C[C@H](NC(=O)[C@H](CC(C)C)NC(=O)[C@H](CCCCN)NC(=O)[C@H](CC(C)C)NC(=O)[C@@H](N)Cc1ccccc1)C(=O)N[C@@H](CCCCN)C(=O)N[C@@H](CCCCN)C(=O)N[C@@H](Cc1ccccc1)CN(CC(N)=O)S(=O)(=O)c1cc(C(F)(F)F)cc(C(F)(F)F)c1` (H-FLKLLKK-X8), the MIC in data set [1] came out at 8 µg/mL (≈ 5.91 µM); in data set [2], 16 µg/mL (≈ 11.8 µM); in [3], 16 µg/mL (≈ 11.8 µM); in data set [4], 8 µg/mL (≈ 5.91 µM); in [5] it was 4 µg/mL (≈ 2.95 µM); in data set [6] it was 4 µg/mL (≈ 2.95 µM). The MIC in [7] and in data set [8] was 4 µg/mL (≈ 2.95 µM) each time. The MHC in data set [9] came to 64 µg/mL. Besides, the half-life in [12] is 3.31 h.

Usually MIC stands for the lowest concentration found to suppress growth. Usually half-life stands for the time needed for the level to fall by half in the phase considered.
